Residual activity data for three compounds are collected here from ChEMBL document CHEMBL5649166, “RIP3 induces apoptosis independent of pronecrotic kinase activity” (Mol Cell, 2014).

The target in test [1] is Serine/threonine-protein kinase PLK2 (Homo sapiens) (UniProt Q9NYY3). The test can be described thus: Inhibition of human PLK2 using casein as substrate at 1 uM in presence of 32P-ATP by Hotspot assay relative to control; values are per cent of control.
The target of test [2] is T1, Myotonin-protein kinase (Homo sapiens) (UniProt Q09013).
T1 sequence (whole entry): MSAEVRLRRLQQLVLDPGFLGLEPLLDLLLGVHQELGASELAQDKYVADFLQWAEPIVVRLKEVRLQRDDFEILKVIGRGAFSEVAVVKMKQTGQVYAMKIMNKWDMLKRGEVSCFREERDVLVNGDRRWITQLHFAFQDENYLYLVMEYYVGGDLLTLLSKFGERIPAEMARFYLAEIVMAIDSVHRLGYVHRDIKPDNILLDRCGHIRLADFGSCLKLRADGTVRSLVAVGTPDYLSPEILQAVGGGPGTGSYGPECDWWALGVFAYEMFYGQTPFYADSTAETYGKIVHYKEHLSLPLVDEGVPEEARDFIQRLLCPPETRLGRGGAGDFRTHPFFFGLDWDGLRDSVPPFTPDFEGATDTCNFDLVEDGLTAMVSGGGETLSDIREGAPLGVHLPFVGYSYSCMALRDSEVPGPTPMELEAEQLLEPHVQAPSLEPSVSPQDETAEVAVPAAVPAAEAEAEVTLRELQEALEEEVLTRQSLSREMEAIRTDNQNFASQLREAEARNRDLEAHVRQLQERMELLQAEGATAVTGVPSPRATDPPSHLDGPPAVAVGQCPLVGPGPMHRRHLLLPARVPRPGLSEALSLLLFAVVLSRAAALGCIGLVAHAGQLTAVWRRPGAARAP
The test is described as follows: Inhibition of human DMPK using KKRNRRLSVA as substrate at 1 uM in presence of 32P-ATP by Hotspot assay relative to control; values are per cent of control.

Test [3] deals with Tyrosine-protein kinase Blk (Homo sapiens) (UniProt P51451). The test is described as follows: Inhibition of human BLK using poly[Glu:Tyr] (4:1) as substrate at 1 uM in presence of 32P-ATP by Hotspot assay relative to control; values are per cent of control.
Chain of Tyrosine-protein kinase Blk (Homo sapiens) (P51451 2-505 limits assumed): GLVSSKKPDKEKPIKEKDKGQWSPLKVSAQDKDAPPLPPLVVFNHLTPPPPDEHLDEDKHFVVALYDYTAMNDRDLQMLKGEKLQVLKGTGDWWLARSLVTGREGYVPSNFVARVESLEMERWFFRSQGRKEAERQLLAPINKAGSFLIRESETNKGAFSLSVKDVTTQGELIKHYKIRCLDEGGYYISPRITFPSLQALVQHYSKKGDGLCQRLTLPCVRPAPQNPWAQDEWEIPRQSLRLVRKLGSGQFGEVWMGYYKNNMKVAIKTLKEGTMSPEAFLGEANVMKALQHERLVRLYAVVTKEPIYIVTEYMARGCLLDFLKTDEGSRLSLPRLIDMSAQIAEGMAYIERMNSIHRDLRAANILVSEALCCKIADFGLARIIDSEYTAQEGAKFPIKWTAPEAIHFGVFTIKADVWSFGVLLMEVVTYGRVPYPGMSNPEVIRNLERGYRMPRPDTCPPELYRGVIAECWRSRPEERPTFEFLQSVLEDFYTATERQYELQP
For test [4], the target named is Fibroblast growth factor receptor 2 (Homo sapiens) (UniProt P21802). The test can be described thus: Inhibition of human FGFR2 using poly[Glu:Tyr] (4:1) as substrate at 1 uM in presence of 32P-ATP by Hotspot assay relative to control; values are per cent of control.
Chain of Fibroblast growth factor receptor 2 (Homo sapiens) (P21802 22-821 limits assumed): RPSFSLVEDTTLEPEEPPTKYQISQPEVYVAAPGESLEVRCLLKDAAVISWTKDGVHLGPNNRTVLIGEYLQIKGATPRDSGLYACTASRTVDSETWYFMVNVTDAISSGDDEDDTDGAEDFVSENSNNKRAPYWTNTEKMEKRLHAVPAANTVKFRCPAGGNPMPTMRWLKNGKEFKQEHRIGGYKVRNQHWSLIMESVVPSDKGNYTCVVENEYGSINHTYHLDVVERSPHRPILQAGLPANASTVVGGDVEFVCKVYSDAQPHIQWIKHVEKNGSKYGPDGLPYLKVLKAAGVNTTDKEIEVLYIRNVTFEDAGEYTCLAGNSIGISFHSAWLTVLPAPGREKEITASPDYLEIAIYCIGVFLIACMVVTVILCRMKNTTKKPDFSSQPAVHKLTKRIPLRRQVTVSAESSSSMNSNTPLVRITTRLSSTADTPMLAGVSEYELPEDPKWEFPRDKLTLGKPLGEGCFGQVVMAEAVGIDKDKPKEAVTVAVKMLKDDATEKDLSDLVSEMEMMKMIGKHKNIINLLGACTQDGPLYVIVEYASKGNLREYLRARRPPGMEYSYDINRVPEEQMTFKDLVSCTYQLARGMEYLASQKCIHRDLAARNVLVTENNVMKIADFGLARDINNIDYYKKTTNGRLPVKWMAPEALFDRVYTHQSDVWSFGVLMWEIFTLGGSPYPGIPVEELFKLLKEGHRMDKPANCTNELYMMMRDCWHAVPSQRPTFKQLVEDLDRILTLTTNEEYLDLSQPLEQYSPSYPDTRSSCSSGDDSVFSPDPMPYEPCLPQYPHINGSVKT
The target of test [5] is Serine/threonine-protein kinase 10 (Homo sapiens) (UniProt O94804). The test can be described thus: Inhibition of human LOK/STK10 using RLGRDKYKTLRQIRQ as substrate at 1 uM in presence of 32P-ATP by Hotspot assay relative to control; values are per cent of control.
Chain of Serine/threonine-protein kinase 10 (Homo sapiens) (O94804 whole entry, looked up): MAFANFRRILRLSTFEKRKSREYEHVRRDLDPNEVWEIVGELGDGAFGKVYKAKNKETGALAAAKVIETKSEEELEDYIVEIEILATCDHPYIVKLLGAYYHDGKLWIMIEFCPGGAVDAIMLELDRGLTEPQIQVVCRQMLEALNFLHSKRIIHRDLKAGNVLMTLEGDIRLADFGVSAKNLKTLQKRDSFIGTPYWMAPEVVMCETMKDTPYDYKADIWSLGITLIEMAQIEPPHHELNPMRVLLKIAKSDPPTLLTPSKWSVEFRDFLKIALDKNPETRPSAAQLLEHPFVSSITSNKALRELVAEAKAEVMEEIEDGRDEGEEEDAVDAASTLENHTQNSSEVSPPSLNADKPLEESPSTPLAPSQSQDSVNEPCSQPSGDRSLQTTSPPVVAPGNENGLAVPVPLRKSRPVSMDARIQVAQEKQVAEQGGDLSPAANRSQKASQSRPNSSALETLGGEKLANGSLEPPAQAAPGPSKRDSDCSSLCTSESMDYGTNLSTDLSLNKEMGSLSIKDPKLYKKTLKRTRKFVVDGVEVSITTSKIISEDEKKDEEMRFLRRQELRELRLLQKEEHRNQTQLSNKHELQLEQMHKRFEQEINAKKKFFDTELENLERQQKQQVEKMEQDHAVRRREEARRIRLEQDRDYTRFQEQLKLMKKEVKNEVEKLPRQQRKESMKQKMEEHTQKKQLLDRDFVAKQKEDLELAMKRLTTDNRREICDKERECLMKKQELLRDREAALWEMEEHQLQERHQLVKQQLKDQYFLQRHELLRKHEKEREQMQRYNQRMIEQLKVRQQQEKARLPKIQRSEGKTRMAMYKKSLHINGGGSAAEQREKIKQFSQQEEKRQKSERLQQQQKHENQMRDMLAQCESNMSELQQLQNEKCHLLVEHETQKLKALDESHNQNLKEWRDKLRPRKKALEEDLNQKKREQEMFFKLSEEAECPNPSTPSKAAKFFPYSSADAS
Test [6] deals with T2, Serine/threonine-protein kinase Nek9 (Homo sapiens) (UniProt Q8TD19).
T2 sequence (whole entry): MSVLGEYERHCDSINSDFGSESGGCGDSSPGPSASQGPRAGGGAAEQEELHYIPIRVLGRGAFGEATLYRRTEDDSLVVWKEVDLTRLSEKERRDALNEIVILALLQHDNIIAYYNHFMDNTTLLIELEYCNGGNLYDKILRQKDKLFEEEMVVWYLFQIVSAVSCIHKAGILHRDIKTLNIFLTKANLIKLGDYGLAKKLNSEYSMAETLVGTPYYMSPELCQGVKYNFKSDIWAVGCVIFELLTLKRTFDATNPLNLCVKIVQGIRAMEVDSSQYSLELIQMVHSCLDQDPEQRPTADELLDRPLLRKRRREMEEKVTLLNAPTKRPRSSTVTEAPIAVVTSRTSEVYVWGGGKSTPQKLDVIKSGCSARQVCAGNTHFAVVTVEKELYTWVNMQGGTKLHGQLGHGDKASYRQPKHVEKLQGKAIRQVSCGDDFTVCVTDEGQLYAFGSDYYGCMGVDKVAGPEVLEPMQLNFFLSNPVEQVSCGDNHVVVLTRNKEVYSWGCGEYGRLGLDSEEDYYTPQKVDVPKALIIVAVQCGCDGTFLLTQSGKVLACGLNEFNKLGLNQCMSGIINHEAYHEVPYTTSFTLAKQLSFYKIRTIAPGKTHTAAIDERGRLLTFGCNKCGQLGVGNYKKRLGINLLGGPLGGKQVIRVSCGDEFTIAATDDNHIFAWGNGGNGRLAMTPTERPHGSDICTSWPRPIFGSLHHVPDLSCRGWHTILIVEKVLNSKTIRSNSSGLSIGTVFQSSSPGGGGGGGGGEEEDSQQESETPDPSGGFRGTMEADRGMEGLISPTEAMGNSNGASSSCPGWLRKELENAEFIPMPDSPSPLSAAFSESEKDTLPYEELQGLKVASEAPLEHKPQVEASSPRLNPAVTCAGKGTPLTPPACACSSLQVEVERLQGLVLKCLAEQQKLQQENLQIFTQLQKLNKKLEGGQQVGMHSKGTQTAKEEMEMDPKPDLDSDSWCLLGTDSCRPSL
The test is described as follows: Inhibition of human NEK9 using myelin basic protein as substrate at 1 uM in presence of 32P-ATP by Hotspot assay relative to control; values are per cent of control.

Test [7] has as its target T3, Mitogen-activated protein kinase 13 (Homo sapiens) (UniProt O15264).
T3 sequence (whole entry): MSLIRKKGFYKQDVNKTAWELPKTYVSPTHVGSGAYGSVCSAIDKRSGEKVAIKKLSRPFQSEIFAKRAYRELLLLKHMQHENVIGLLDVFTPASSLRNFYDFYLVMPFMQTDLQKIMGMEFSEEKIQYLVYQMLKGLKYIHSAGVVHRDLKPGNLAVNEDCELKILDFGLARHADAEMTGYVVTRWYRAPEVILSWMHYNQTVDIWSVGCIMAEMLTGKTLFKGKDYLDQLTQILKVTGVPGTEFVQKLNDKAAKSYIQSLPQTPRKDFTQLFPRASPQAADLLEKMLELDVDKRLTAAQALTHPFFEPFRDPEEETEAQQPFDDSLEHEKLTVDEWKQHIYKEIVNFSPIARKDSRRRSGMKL
The test can be described thus: Inhibition of human P38d/MAPK13 using myelin basic protein as substrate at 1 uM in presence of 32P-ATP by Hotspot assay relative to control; values are per cent of control.

Chain of Serine/threonine-protein kinase PLK2 (Homo sapiens) (Q9NYY3 whole entry, looked up): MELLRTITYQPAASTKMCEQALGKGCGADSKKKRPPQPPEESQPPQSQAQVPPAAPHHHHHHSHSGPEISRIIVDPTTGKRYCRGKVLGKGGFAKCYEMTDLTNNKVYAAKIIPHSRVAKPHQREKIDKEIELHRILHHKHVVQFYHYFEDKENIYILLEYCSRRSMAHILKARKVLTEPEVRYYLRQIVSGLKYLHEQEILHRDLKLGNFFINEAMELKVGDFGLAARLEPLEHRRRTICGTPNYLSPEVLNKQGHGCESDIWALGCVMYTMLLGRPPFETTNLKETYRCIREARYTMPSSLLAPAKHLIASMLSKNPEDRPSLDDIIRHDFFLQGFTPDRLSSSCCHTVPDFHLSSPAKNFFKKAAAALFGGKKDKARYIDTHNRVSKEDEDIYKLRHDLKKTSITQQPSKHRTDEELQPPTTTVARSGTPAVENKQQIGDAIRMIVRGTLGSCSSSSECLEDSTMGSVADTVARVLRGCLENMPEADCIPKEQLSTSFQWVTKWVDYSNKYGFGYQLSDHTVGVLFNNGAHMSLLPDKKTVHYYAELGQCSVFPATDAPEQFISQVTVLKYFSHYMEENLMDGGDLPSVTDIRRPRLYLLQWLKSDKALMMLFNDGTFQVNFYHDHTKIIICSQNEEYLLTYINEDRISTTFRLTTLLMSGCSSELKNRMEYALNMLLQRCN

With `Cc1cc(-c2cnc(N)c3c(-c4ccc5scnc5c4)csc23)n(C)n1`, the residual activity in test [1] worked out at 106%; in test [2], 92.1%; in test [3], 39.3%; in test [4], 61.7%; in test [5], 78.2%; in test [6], 91%. The residual activity in test [7] amounted to 103%.
Turning to `CC(C)S(=O)(=O)c1ccc2nccc(Nc3ccc4scnc4c3)c2c1`, the residual activity in test [1] was 94.7%; in test [2] it was 103%; in test [3], 62.8%; in test [4] it was 73.7%; in test [5], 70.9%; in test [6], 86.7%. In test [7], the residual activity was determined as 94.8%.
Take `CNC(=O)c1ccc2c(c1)ncn2-c1ccc(CC(=O)OC(C)(C)C)cc1`: the residual activity came out at 99.1% in test [1]; 107% in test [2]; 73.9% in test [3]; 66.7% in test [4]; 96.8% in test [5]; 102% in test [6]. Besides, in test [7], the residual activity came out at 104%.
